The source of these data is US5242942A, “Anticonvulsant fructopyranose cyclic sulfites and sulfates” (McNeilab, Inc., priority 1992, dated 1993).

The structures appear in SMILES notation.

In test [1] the test system is tonic extensor seizure. Briefly: maximal electroshock test (MES). It counts as in vivo, mouse (albino male CRS-CD1). Particulars: PO, mouse, 4 hr, read-out: % Block (MES Test, mouse). The method, then: The compounds of formula (I) are particularly useful as anticonvulsant agents in mammals including humans. The anticonvulsant activity of the subject compounds was determined using a standard "maximal electroshock test" (MES). In this test, activity is indicated by a block of the […] extensor seizure caused by application of an electric shock to mice via corneal electrodes, as described by Swinyard et al. in J. Pharmacol. Expt. Ther. 1952, 106, 319, and recorded as % block. A more recent description of current anticonvulsant drug screening is given by Swinyard in Epilepsia 1978, 19, 409. The anticonvulsant activity of the compounds of this invention tested according to the Swinyard 1952 method is shown in the following Table I.
In the test, albino male CRS-CD1 mice weighing between 18-25 g were used in all experiments (obtained from Charles River). They were allowed food and water ad libitum and were used only once. The electroshock apparatus and the corneal electrodes were purchased from Wahlquist Instrument Company, Salt Lake City, Utah.
Maximal electroshock seizures were induced by the delivery of a 60 Hertz (Hz) current of 50 milliamps (mA) intensity to the mouse through corneal electrodes for 0.2 seconds as originally described by Swinyard et al. (1952). This stimulus intensity is approximately 4 to 6 times the current producing 100% tonic extensor convulsions. During the validation of the MES test, the duration of the various seizure components following maximal electroshock were measured as follows: hindleg tonic flexion was measured from the time of the application of the stimulus to the time of onset of hindleg tonic extension (i.e. when the hindlegs deviate by greater than an angle of 90° from the torso), hindleg tonic extensor was measured from the time of extensor thrust to the onset of generalized clonus, and terminal clonus was measured from the beginning to the end of bilateral rhythmic clonic jerking. Mortality was also recorded. The duration of each seizure component agreed well with the values previously reported by Tedeschi et al. in J. Pharmacol. Expt. Ther. 1955, 116, 107. The corneal electrodes were concave so that saline could be applied to the electrodes to reduce mortality. If this procedure is followed, mortality should always be less than 40% in control mice. Thus, at an electroshock stimulus of 60 Hz, 50 mA and 0.2 seconds duration, the order of convulsive components and the percentage of control animals displaying the behaviors should be as follows: tonic flexion (100%), tonic extension (100%) and clonus (100%) with less than 40% mortality.
For testing compounds, the abolition of the tonic extensor component was the endpoint. Animals were dosed orally (PO) with either vehicle or test drug and at a specified time were given a maximal electric shock through corneal electrodes blotted with saline (as described above). A minimum of 10 animals were used per group and the percentage of animals in the group without tonic hindlimb extension recorded. Determination of ED50 values (that dose of drug inhibiting 50% of the tonic extensor seizures) is shown below in Table I.
Background: In the maximal electroshock model the usual endpoint is tonic extension of the hind limbs.

The nature of test [2]: rat diuresis study. It counts as in vivo, rat (male Wistar). Particulars: average of five animals; for Water Intake: control 15.0; for Urine Output: control 17.6. The source says:
Evidence for the inhibition of carbonic anhydrase by compounds of the formula (I) can also be obtained by a diuresis study, such as described by A. Weiner in Goodman and Gilman's The Pharmacological Basis of Therapeutics, 8th ed.; Goodman Gilman, A.; Rall, T. W.; Nies, A. S.; Taylor, P., Eds.; Pergamon Press: New York, 1990; pp 716-718. An increase in urine akalinity accompanied with an increase in water intake and urine output provides an indirect indication of carbonic anhydrase inhibition activity. Male Wistar rats having a weight of 250-300 g were dosed orally (PO) and housed in cages that allowed for the quantitative measure of fluid intake and urine output. Water intake and urine output were measured at 24 hours versus control, whereas urine pH, obtained via pH meter, was measured at 4 and 24 hours versus control. The results of this study, which are the average of five animals, are reported below in Table III. […] Such data is also an indication of the usefulness of the compounds of formula (I) as diuretics in the treatment of hypertension, congestive heart failure and other types of edema. The determination of suitable dosages for such compounds for the treatment of hypertension and congestive heart failure and other types of edema is within the skill of the art.

As to `C=CCNS(=O)(=O)OC[C@@]12OC[C@H]3OS(=O)(=O)O[C@H]3[C@@H]1OC(C)(C)O2` [Example 7, 2,3-O-(1-Methylethylidene)-4,5-O-sulfonyl-β-D-fructopyranose 2-Propenylsulfamate], the responders at 10 mg/kg in test [1] came out at 70%.
As for `CNS(=O)(=O)OC[C@@]12OC[C@H]3OS(=O)(=O)O[C@H]3[C@@H]1OC(C)(C)O2` [Example 3, 2,3-O-(1-Methylethylidene)-4,5-O-sulfonyl-β-D-fructopyranose Methylsulfamate], in test [2] (2.7 mg/kg PO, 4 hours, control 6.98), the “Urine pH” value is listed as 9.02. Besides, the “Urine pH” value in test [2] (2.7 mg/kg PO, 24 hours, control 6.43) was 6.78. In test [2] (2.7 mg/kg PO, 24 hours), the “Water Intake” value was found to be 23.6 mL and the “Urine Output” value amounted to 28.8 mL. Besides, the responders at 10 mg/kg in test [1] was 100%.
In the case of `CC1(C)O[C@H]2[C@@H]3OS(=O)(=O)O[C@@H]3CO[C@@]2(COS(=O)(=O)NCc2ccccc2)O1` [Example 8, 2,3-O-(1-Methylethylidene)-4,5-O-sulfonyl-β-D-fructopyranose Phenylmethylsulfamate], the responders at 75 mg/kg in test [1] was 100%.
With `CCCCNS(=O)(=O)OC[C@@]12OC[C@H]3OS(=O)(=O)O[C@H]3[C@@H]1OC(C)(C)O2` [Example 4, 2,3-O-(1-Methylethylidene)-4,5-O-sulfonyl-β-D-fructopyranose Butylsulfamate], in test [1], the responders at 35 mg/kg came to 100%.
For `CCN(CC)S(=O)(=O)OC[C@@]12OC[C@H]3OS(=O)(=O)O[C@H]3[C@@H]1OC(C)(C)O2` [Example 14, 2,3-O-(1-Methylethylidene)-4,5-O-sulfonyl-β-D-fructopyranose Diethylsulfamate], the responders at 10 mg/kg in test [1] was determined as 10%.
For `CCCCCCCCNS(=O)(=O)OC[C@@]12OC[C@H]3OS(=O)(=O)O[C@H]3[C@@H]1OC(C)(C)O2` [Example 6, 2,3-O-(1-Methylethylidene)-4,5-O-sulfonyl-β-D-fructopyranose Octylsulfamate], the responders at 75 mg/kg in test [1] is 100%.
In the case of `CC1(C)O[C@H]2[C@@H]3O[S@](=O)O[C@@H]3CO[C@@]2(COS(N)(=O)=O)O1` [Example 17, (R)-2,3-O-(1-Methylethylidene)-4,5-O-sulfinyl-β-D-fructopyranose Sulfamate], in test [1], the responders at 35 mg/kg turned out to be 90%.
For `CC1(C)O[C@H]2[C@@H]3O[S@@](=O)O[C@@H]3CO[C@@]2(COS(N)(=O)=O)O1` [Example 16, (S)-2,3-O-(1-Methylethylidene)-4,5 -O-sulfinyl-β-D-fructopyranose Sulfamate], in test [1], the responders at 75 mg/kg was 40%.
Same read-out and setting: the value for `CC1(C)O[C@@H]2[C@H]3OS(=O)(=O)O[C@H]3CO[C@]2(COS(N)(=O)=O)O1` [Example 2, 2,3-O-(1-Methylethylidene)-4,5-O-sulfonyl-β-L-fructopyranose Sulfamate] was 80%.
With `Cc1ccc(S(=O)(=O)N=S2(=O)O[C@@H]3[C@@H](CO[C@@]4(COS(N)(=O)=O)OC(C)(C)O[C@@H]34)O2)cc1` (stereo partly drawn) [Example 20, 2,3-O-(1-Methylethylidene)-4,5-O-[N-(4-methylbenzenesulfonyl)imidosulfonyl]-β-D-fructopyranose Sulfamate], in test [1], the responders at 300 mg/kg came to 75%.
As for `CCNS(=O)(=O)OC[C@@]12OC[C@H]3OS(=O)(=O)O[C@H]3[C@@H]1OC(C)(C)O2` [Example 5, 2,3-O-(1-Methylethylidene)-4,5-O-sulfonyl-β-D-fructopyranose Ethylsulfamate], the “Urine pH” value in test [2] (1.2 mg/kg PO, 4 hours, control 6.98) was 9.03. In addition, in test [2] (1.2 mg/kg PO, 24 hours, control 6.43), the “Urine pH” value amounted to 6.41. In test [2] (1.2 mg/kg PO, 24 hours), the “Water Intake” value was found to be 15.8 mL and the “Urine Output” value was 19.9 mL. Further, in test [1], the responders at 10 mg/kg was determined as 100%.
Turning to `CCC1(CC)O[C@H]2[C@@H]3OS(=O)(=O)O[C@@H]3CO[C@@]2(COS(N)(=O)=O)O1` [Example 18, 2,3-O-(1-Ethylpropylidene)-4,5-O-sulfonyl-β-D-fructopyranose Sulfamate], in test [1], the responders at 75 mg/kg was 100%.
As for `CC1(C)O[C@H]2[C@@H]3OS(=O)(=O)O[C@@H]3CO[C@@]2(COS(=O)(=O)NCC(F)(F)F)O1` [Example 12, 2,3-O-(1-Methylethylidene)-4,5-O-sulfonyl-β-D-fructopyranose (2,2,2-Trifluoroethyl)sulfamate], the responders at 10 mg/kg in test [1] was found to be 40%.
As for `Cc1ccc(S(=O)(=O)N=S2O[C@@H]3[C@@H](CO[C@@]4(COS(N)(=O)=O)OC(C)(C)O[C@@H]34)O2)cc1` (stereo partly drawn) [Example 19, 2,3-O-(1-Methylethylidene)-4,5-O-[N-(4-methylbenzenesulfonyl)imidosulfinyl]-β-D-fructopyranose Sulfamate], in test [1], the responders at 300 mg/kg came out at 80%.
For `CC1(C)O[C@H]2[C@@H]3OS(=O)(=O)O[C@@H]3CO[C@@]2(COS(=O)(=O)NC2CCC2)O1` [Example 10, 2,3-O-(1-Methylethylidene)-4,5-O-sulfonyl-β-D-fructopyranose Cyclobutylsulfamate], the responders at 10 mg/kg in test [1] was found to be 90%.
As for `CN(C)S(=O)(=O)OC[C@@]12OC[C@H]3OS(=O)(=O)O[C@H]3[C@@H]1OC(C)(C)O2` [Example 13, 2,3-O-(1-Methylethylidene)-4,5-O-sulfonyl-β-D-fructopyranose Dimethylsulfamate], in test [2] (2.1 mg/kg PO, 4 hours, control 6.98), the “Urine pH” value is given as 8.93. In addition, in test [2] (2.1 mg/kg PO, 24 hours, control 6.43), the “Urine pH” value is listed as 6.81. Moreover, in test [2] (2.1 mg/kg PO, 24 hours), the “Water Intake” value stood at 21 mL and the “Urine Output” value is recorded as 23.2 mL. The responders at 10 mg/kg in test [1] is 70%.
